Assay results published in patent publication US6734177B2, “Certain salts of discodermolide acid, pharmaceutical compositions containing them and their use in treating tumors” (Novartis AG, priority 2001, dated 2004).
Like-named read-outs stand apart in the source and are kept apart here.

Key:
[1] = test system: 1A9PTX22 ovarian carcinoma; test: Anchorage Dependent Growth Monolayer Assay (ADGMA), MTT, 3-day exposure; format: cell-based; settings: Homo sapiens, 1A9/ptx-22, 72 h, read-out: IC50 (average±S.E.M.) 1A9PTX22
Description: (§1) As indicated above, all of the compounds of formula I are anti-tumor agents and are, therefore, useful in inhibiting the growth of various lymphomas, sarcomas, carcinomas, myelomas, and leukemia cell lines. […] This assay was adapted from the 60 cell line assay used by the National Cancer Institute (NCI) with the following modifications:
(§2) 1) four cell lines representative for the important tumor types, viz., MIP 101 colon carcinoma, HCT 116 colon carcinoma, 1A9 ovarian carcinoma and 1A9PTX22 ovarian carcinoma were utilized; and
(§3) 2) a tetrazolium derivative, viz., MTT, was utilized to determine cell density.
(§4) The ADGMA compares the number of viable cells following a 3-day exposure to a test compound relative to a number of cells present at the time the test compound was added. […] The absorbence at 540 nm (A540) of the formazan derivative is proportional to the number of viable cells. The IC50 for a test compound is the concentration of compound required to reduce the final cell number to 50% of the final control cell number. If cell proliferation is inhibited, the assay further defines compounds as cytostatic (cell number after 3-day compound incubation>cell number at time of compound addition) or cytotoxic (cell number after 3-day compound incubation<cell number at time of compound addition).
(§5) The HCT 116 colon carcinoma cell line was obtained from the American Type Culture Collection (ATCC, Rockville, Md.). The MIP 101 colon carcinoma was obtained from Dr. Robert Kramer (Bristol Meyers Squibb) and was previously described (Niles R M, Wilhelm S A, Steele G D JR, Burke B, Christensen T, Dexter D, O'Brien M J, Thomas P, Zamcheck N. Isolation and characterization of an undifferentiated human colon carcinoma cell line (MIP-101). Cancer Invest. 1987;5(6):545-52.). The 1A9 and the 1A9PTX22 ovarian tumor cell lines were obtained from Dr. Tito Fojo, Medicine Branch, Division of Clinical Sciences, National Cancer Institute, National Institutes of Health, Bethesda, Md. 20892. The 1A9 is a clone of the ovarian carcinoma cell line, A2780 (Giannakakou P, Sackett, D L, Kang Y -K, Zhan Z, Buters J T M, Fojo T, Poruchynsky M S. Paclitaxel-resistant human ovarian cancer cells have mutant β-tubulins that impaired paclitaxel-driven polymerization. J. Biol. Chem. 1997, 272(4):17118-17125). The 1A9PTX22 subline was isolated as an individual clone from the 1A9 cell line in a single step selection by exposure to 5 ng/mL paclitaxel in the presence of 5 μg/mL of verapamil. All cell lines were used between passages 4-20 following thawing. MIP 101 colon carcinoma, HCT 116 colon carcinoma, 1A9 ovarian carcinoma and 1A9PTX22 ovarian carcinoma cell lines are maintained and plated in RPMI 1640 medium containing 10% fetal bovine serum.
(§6) Cells are trypsinized and counted using hemacytometer to determine cell concentrations. Cells were then plated in their respective maintenance media (200 μL/well) in 96-well plates at the following concentrations: MIP 101, 2000 cells/well, HCT 116, 2000 cells/well, 1A9, 10000 cells/well, and 1A9PTX22, 10000 cells/well. […] Initial cell densities, assayed one day after plating, are roughly 0.10-0.20 A540 absorbence units greater than the media blank. Ninety six well plates were seeded on day 0 and the test compounds are added on day 1. A “time 0” plate was created that received media only in row A and one cell line/row in rows B-E. The “time 0” plate was processed 24 hours after plating (at the time when drugs were added to experimental plates), as follows: To each well 5 microliters of the MTT stock solution (0.5 mg/ml in PBS) was added to each well and then incubated for three hours at 37 degrees C., 5% CO2, in a humidified environment. Media was then carefully and completely removed. Plates were allowed to dry in the dark. DMSO (dimethylsulfoxide) was added to each well (100 μl/well) and plates were placed on an orbital shaker for 2 hours. […]

HCT 116 colon carcinoma = test: as above; format: cell-based; settings: Homo sapiens, read-out: IC50 (average±S.E.M.) HCT116
Description: as §1, §2, §3, §4, §5, §6

MIP 101 colon carcinoma = test: as above; format: cell-based; settings: Homo sapiens, 72 h, read-out: IC50 (average±S.E.M.) MIP101
Description: as §1, §2, §3, §4, §5, §6

1A9 ovarian carcinoma = test: as above; format: cell-based; settings: Homo sapiens, read-out: IC50 (average±S.E.M.) 1A9
Description: as §1, §2, §3, §4, §5, §6

[2] = Body weight change of athymic nude mice in the hollow fiber model; format: in vivo; settings: Paclitaxel 15 mg/kg i.v. daily for 5 days, Ex. 1 45 mg/kg i.v. once; for Δ Mean % Body Weight, Exp. 1: Experiment 1; for Δ Mean % Body Weight, Exp. 2: Experiment 2
Description: Outbred athymic (nu/nu) female mice (“Chrls:Athymic Nude-nu”, Charles River Laboratories, Wilmington, Mass.) were anesthetized with ip injections of Ketamine/Xylazine (150 mg/kg, and 12 mg/kg body weight, respectively). For the subcutaneous implantation an 11-gauge trocar containing one or two hollow fibers was inserted through an incision made with scissors at the nape of the neck of an animal, and fibers were released by retracting the trocar while depressing the plunger. This procedure was repeated until all four hollow fibers were implanted. One wound clip was used to close the skin incision. After the surgery each animal received a single, subcutaneous injection of 0.4 mg/kg butorphenol to relieve any potential pain. Animals recovered from the anesthesia on a heating pad, before returning to their cages.
One day after the implantation (4 hollow fibers/animal, each hollow fiber containing one cell line: HCT 116, MIP 101, 1A9, and 1A9PTX22) animals were randomly sorted into five groups of six mice/group. The first group was sacrificed, hollow fibers were retrieved, and processed according to a published procedure, to determine the number of viable cells in each fiber (T0.)
The remaining groups were treated as follows:
Group 1: Example 1, 45 mg/kg, iv, once.
Group 2: Vehicle for Example 1 (16.7% Cremophor EL, 8.3% ethanol, 75% D5W), iv, once.
Group 3: Paclitaxel, 15 mg/kg, iv, daily for 5 days.
Group 4: Vehicle for paclitaxel (12.5% Cremophor EL, 12.5% ethanol, 75% D5W) iv, daily for 5 days.
On day 7 all animals were sacrificed, and hollow fibers were retrieved and processed according to a published procedure, to determine the number of viable cells in each fiber (T—for fibers from animals treated with experimental compounds, C—for fibers from animals treated with corresponding vehicles). Antitumor activity was expressed as % Mean ΔT/Mean ΔC [comparing cell growth for treatment group to vehicle control group, where % Mean ΔT/Mean ΔC=(Mean T−Mean T0/Mean C−Mean T0)×100%]. Regressions were calculated using the formula: (1−Mean T/Mean T0)×100%. Statistical significance of the results was uniformly evaluated using a two-tailed Student's t-test, as recommended by a statistician, following analysis of our representative experiments (Colin Goodal, statistical consultant to Novartis, personal communication).

IC50 ([1]; 1A9PTX22 cells, 3-day exposure, MTT) | IC50 (HCT 116 colon carcinoma; 72 h, HCT 116 cells, 3-day exposure, MTT) | IC50 (MIP 101 colon carcinoma; MIP 101 cells, 3-day exposure, MTT) | IC50 (1A9 ovarian carcinoma; 72 h, 1A9 cells, 3-day exposure, MTT) | Compound | IC50 [1] | IC50 (HCT 116 colon carcinoma; HCT-116, 72 h) | IC50 (MIP 101 colon carcinoma) | IC50 (1A9 ovarian carcinoma; 1A9, 72 h) | Δ Mean % Body Weight, Exp. 1 [2] | Δ Mean % Body Weight, Exp. 2 [2]
– | – | – | – | C=C/C=C\[C@H](C)[C@H](OC(N)=O)[C@@H](C)[C@@H](O)[C@@H](C)C/C(C)=C\[C@H](C)[C@@H](O)[C@@H](C)/C=C\[C@@H](O)C[C@H](O)[C@H](C)[C@H](O)[C@@H](C)C(=O)[O-].[Na+] [Ex. 1, (2R,3S,4S,5S,7S,8Z,10S,11S,12S,13Z,16S,17S,18S,19S,20S,21Z)-19-[(aminocarbonyl)oxy]-3,5,7,11,17-pentahydroxy-2,4,10,12,14,16,18,20-octamethyl-8,13,21,23-tetracosatetraenoic acid, sodium salt] | 200 ± 90 nM | 50 ± 20 nM | 300 ± 10 nM | 100 ± 40 nM | Exp. 1: None | Exp. 2: None
1 ± 1 nM | 0.3 ± 0.2 nM | 200 ± 60 nM | 47 ± 7 nM | CC(=O)O[C@H]1C(=O)[C@@]2(C)[C@H]([C@H](OC(=O)c3ccccc3)[C@]3(O)C[C@H](OC(=O)[C@H](O)[C@@H](NC(=O)c4ccccc4)c4ccccc4)C(C)=C1C3(C)C)[C@]1(OC(C)=O)CO[C@@H]1C[C@@H]2O [paclitaxel] | – | – | – | – | Exp. 1: None | Exp. 2: None
